Several values for one entry are separate records, joined by “and”; a condition that tells them apart may be missing. Equal values may be shown once. Read-outs that look alike come from different tables or passages of the source.
Assays:
[1] = target: T1, coca-GlyR (α7(L141G,G175K,Y217F)–GlyR) (Homo sapiens, UniProt P23415+P36544, G175K/L141G/Y217F); test: Membrane potential assay, coca-GlyR in HEK293; format: cell-based; conditions: coca-GlyR; for Max normalized AVG: AVG of DRs
T1 construct: expressed in transfected cells; host or cells: HEK293 (ATCC CRL-1573), pcDNA3.1

unmodified α7–5HT3 = target: T2, unmodified α7–5HT3 (UniProt P23979+P36544, M226I/T225I); test: Membrane potential assay, unmodified α7–5HT3; format: cell-based, human α7 nAChR LBD, mouse 5HT3 IPD; conditions: a7-5Ht3; for Max normalized AVG: AVG of DR 1-3; for Max normalized, single replicate: relative to ACh max of the DR
T2 construct: expressed in transfected cells; host or cells: HEK293 (ATCC CRL-1573), pcDNA3.1

unmodified α7–GlyR = target: T3, unmodified α7–GlyR (Homo sapiens, UniProt P23415+P36544); test: Membrane potential assay, unmodified α7–GlyR; format: cell-based; conditions: a7-GlyR; for Max normalized AVG: AVG of DR 1-3
T3 construct: expressed in transfected cells; host or cells: HEK293 (ATCC CRL-1573), pcDNA3.1

coca-5HT3 = test: Whole-cell voltage-clamp in HEK293 cells, coca-5HT3; format: cell-based, human α7 nAChR LBD, mouse 5HT3 IPD
Procedure: Channel mutants and agonists were further characterized in whole-cell voltage-clamp experiments performed on HEK293 cells. At passage 44–48, cells were plated at low density (1 × 10^3 per cm^2) on poly-D-lysine-coated glass coverslips, then transfected in 10 cm^2 wells using the Fugene 6 transfection reagent (Roche) with DNA plasmids containing both an ion channel cDNA (pcDNA3.1, 2 µg per well) and cDNA for GFP (pCMV, 0.1 μg per well), followed by replacement of the medium after 3 h. Recordings were made 24–72 h after transfection.
Electrophysiological recordings were performed in whole-cell voltage-clamp mode, on an inverted fluorescence microscope (Olympus IX-51) using pClamp software and a […] amplifier (Molecular Devices). Electrophysiological data was filtered at 4 kHz, digitized at 10 kHz using a Digidata 1400 interface (Molecular Devices), recorded on a PC (Dell) and analysed using custom MATLAB software (MathWorks). Solutions were delivered from a gravity fed perfusion system through a capillary tube placed approximately […] from the recorded cell using an eight-way manifold pinch valve system (Nanion), which was controlled from the acquisition software. This allowed for up to seven concentrations of agonist to be tested. […]

[2] = test system: α7–5HT3 mutant chimeric channels; test: cell-based; format: cell-based, human α7 nAChR LBD, mouse 5HT3 IPD; conditions: for EC50: sheet 1e
[3] = screen of chimeric α7–5HT3 and α7–GlyR single LBD mutants (Fig. 1d)

T3 sequence (P36544+P23415 fused): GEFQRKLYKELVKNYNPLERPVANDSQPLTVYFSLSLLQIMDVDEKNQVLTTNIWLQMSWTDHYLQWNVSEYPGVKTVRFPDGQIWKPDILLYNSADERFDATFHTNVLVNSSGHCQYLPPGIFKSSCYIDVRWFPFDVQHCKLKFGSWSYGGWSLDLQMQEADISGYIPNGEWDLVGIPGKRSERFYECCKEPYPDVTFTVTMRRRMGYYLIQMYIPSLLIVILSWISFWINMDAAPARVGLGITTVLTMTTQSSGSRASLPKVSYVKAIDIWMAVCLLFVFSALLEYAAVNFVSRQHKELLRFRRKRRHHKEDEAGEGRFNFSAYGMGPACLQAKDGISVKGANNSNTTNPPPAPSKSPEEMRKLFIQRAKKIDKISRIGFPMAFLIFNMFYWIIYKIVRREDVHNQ
T1 sequence (P36544+P23415 fused P36544:L141G/P36544:G175K/P36544:Y217F): as the sequence (P36544+P23415 fused) above, with L119G, G153K, Y195F counted along it
T2 sequence (P36544+P23979 fused P36544:T225I/P36544:M226I): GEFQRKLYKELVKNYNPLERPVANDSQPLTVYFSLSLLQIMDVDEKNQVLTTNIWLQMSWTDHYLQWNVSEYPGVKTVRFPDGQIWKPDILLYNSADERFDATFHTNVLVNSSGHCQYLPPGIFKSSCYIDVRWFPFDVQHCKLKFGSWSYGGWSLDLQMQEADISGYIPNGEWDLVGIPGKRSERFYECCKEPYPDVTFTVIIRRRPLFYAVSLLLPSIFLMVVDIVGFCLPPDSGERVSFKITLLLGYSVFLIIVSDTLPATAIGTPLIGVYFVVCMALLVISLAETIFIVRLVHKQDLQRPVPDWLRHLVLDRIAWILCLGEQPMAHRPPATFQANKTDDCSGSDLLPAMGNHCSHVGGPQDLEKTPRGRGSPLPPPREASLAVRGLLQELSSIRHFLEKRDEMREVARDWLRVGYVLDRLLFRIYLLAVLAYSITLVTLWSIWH

CC(=O)OCC[N+](C)(C)C [ACh, acetylcholine]
DR response, single replicate ([1]; [ACh] 1.37174): 0.018 and 0.006 and 0.023 and 0.1 and 0.117 and 0.055 and 0.048 and 0.049
Max normalized, single replicate ([1]; [ACh] 1.37174): 0.004983 and 0.06336 and 0.1695 and 0.06161 and 0.07891 and 0.05993 and 0.05731 and 0.01172
Max normalized AVG ([1]; [ACh] 1.37174): 0.06341
DR response, single replicate ([1]; [ACh] 4.11523): 0.031 (2×) and 0.023 and 0.017 and 0.194 and 0.139 and 0.02 and 0.098
Max normalized, single replicate ([1]; [ACh] 4.11523): 0.0191 and 0.04683 and 0.3288 and 0.0732 and 0.02869 and 0.0387 and 0.1146 and 0.02018
Max normalized AVG ([1]; [ACh] 4.11523): 0.08377
DR response, single replicate ([1]; [ACh] 12.3457): 0.127 and 0.17 and 0.031 and 0.325 and 0.191 and 0.086 and 0.042 and 0.079
Max normalized AVG ([1]; [ACh] 12.3457): 0.1536
DR response, single replicate ([1]; [ACh] 37.037): 0.513 and 0.713 and 0.076 and 0.453 and 1.051 and 0.206 and 0.22 and 0.227
Max normalized, single replicate ([1]; [ACh] 37.037): 0.5922 and 0.2094 and 0.7678 and 0.5534 and 0.2956 and 0.2747 and 0.2655 and 0.334
Max normalized AVG ([1]; [ACh] 37.037): 0.4116
DR response, single replicate ([1]; [ACh] 111.111): 1.218 and 1.065 and 0.222 and 0.557 and 1.552 and 0.373 and 0.414 and 0.475
Max normalized AVG ([1]; [ACh] 111.111): 0.7072
Max normalized, single replicate ([1]; [ACh] 333.333): 0.9626 and 0.9449 and 1 (5×) and 0.9414
Max normalized AVG ([1]; [ACh] 333.333): 0.9811
DR response, single replicate ([1]; [ACh] 1000): 1.536 and 1.204 and 0.363 and 0.524 and 0.67 and 0.657 and 0.77
Max normalized, single replicate ([1]; [ACh] 1000): 1 (3×) and 0.8881 and 0.9613 and 0.8202 and 0.9006
Max normalized AVG ([1]; [ACh] 1000): 0.9386
DR response, single replicate ([1]; [ACh] 3000): 1.183 and 0.791 and 0.464
Max normalized, single replicate ([1]; [ACh] 3000): 0.657 and 0.7864 and 0.7702
Max normalized AVG ([1]; [ACh] 3000): 0.7379
DR response, single replicate (unmodified α7–5HT3; concentration 0.0457247): 0.056 and 0.121 and 0.112
Max normalized AVG (unmodified α7–5HT3; concentration 0.0457247): 0.09523
Max normalized, single replicate (unmodified α7–5HT3; concentration 0.0457247): 0.1142 and 0.1039 and 0.06763
DR response, single replicate (unmodified α7–5HT3; concentration 0.137174): 0.034 and 0.057 and 0.037
Max normalized AVG (unmodified α7–5HT3; concentration 0.137174): 0.04305
Max normalized, single replicate (unmodified α7–5HT3; concentration 0.137174): 0.05377 and 0.03432 and 0.04106
DR response, single replicate (unmodified α7–5HT3; concentration 0.411523): 0.071 and 0.056 and 0.06
Max normalized AVG (unmodified α7–5HT3; concentration 0.411523): 0.06475
Max normalized, single replicate (unmodified α7–5HT3; concentration 0.411523): 0.05283 and 0.05566 and 0.08575
DR response, single replicate (unmodified α7–5HT3; concentration 1.23457): 0.065 and 0.06 and 0.083
Max normalized AVG (unmodified α7–5HT3; concentration 1.23457): 0.0707
Max normalized, single replicate (unmodified α7–5HT3; concentration 1.23457): 0.0566 and 0.07699 and 0.0785
DR response, single replicate (unmodified α7–5HT3; concentration 3.7037): 0.161 and 0.213 and 0.204
Max normalized AVG (unmodified α7–5HT3; concentration 3.7037): 0.1949
Max normalized, single replicate (unmodified α7–5HT3; concentration 3.7037): 0.2009 and 0.1892 and 0.1944
DR response, single replicate (unmodified α7–5HT3; concentration 11.1111): 0.486 and 0.61 and 0.657
Max normalized AVG (unmodified α7–5HT3; concentration 11.1111): 0.5906
Max normalized, single replicate (unmodified α7–5HT3; concentration 11.1111): 0.5755 and 0.6095 and 0.587
DR response, single replicate (unmodified α7–5HT3; concentration 33.3333): 0.828 and 1.06 and 1.078
Max normalized AVG (unmodified α7–5HT3; concentration 33.3333): 1
Max normalized, single replicate (unmodified α7–5HT3; concentration 33.3333): 1
DR response, single replicate (unmodified α7–5HT3; concentration 100): 0.762 and 0.959 and 0.926
Max normalized AVG (unmodified α7–5HT3; concentration 100): 0.8947
Max normalized, single replicate (unmodified α7–5HT3; concentration 100): 0.9047 and 0.859 and 0.9203
max (DR response of the replicate) (unmodified α7–5HT3; largest response of each DR): 0.828 and 1.06 and 1.078
Max normalized, single replicate (unmodified α7–GlyR; [ACh] 0.0457247): 0.2482 and 0.1071 and 0.173
Max normalized AVG (unmodified α7–GlyR; [ACh] 0.0457247): 0.1761
Max normalized AVG (unmodified α7–GlyR; [ACh] 0.137174): 0.1486
Max normalized, single replicate (unmodified α7–GlyR; [ACh] 0.411523): 0.2506 and 0.0705 and 0.1596
Max normalized AVG (unmodified α7–GlyR; [ACh] 0.411523): 0.1602
Max normalized, single replicate (unmodified α7–GlyR; [ACh] 1.23457): 0.2787 and 0.09661 and 0.1213
Max normalized AVG (unmodified α7–GlyR; [ACh] 1.23457): 0.1655
Max normalized, single replicate (unmodified α7–GlyR; [ACh] 3.7037): 0.4426 and 0.3029 and 0.2921
Max normalized AVG (unmodified α7–GlyR; [ACh] 3.7037): 0.3459
Max normalized, single replicate (unmodified α7–GlyR; [ACh] 11.1111): 0.8337 and 0.671 and 0.6315
Max normalized AVG (unmodified α7–GlyR; [ACh] 11.1111): 0.7121
Max normalized, single replicate (unmodified α7–GlyR; [ACh] 33.3333): 0.9719 and 0.9347 and 0.9843
Max normalized AVG (unmodified α7–GlyR; [ACh] 33.3333): 0.9636
Max normalized, single replicate (unmodified α7–GlyR; [ACh] 100): 1
Max normalized AVG (unmodified α7–GlyR; [ACh] 100): 1
DR response, single replicate (unmodified α7–GlyR; concentration 0.0457247): 0.077 and 0.106 and 0.041
DR response, single replicate (unmodified α7–GlyR; concentration 0.137174): 0.046 and 0.076 and 0.063
DR response, single replicate (unmodified α7–GlyR; concentration 0.411523): 0.071 and 0.107 and 0.027
DR response, single replicate (unmodified α7–GlyR; concentration 1.23457): 0.054 and 0.119 and 0.037
DR response, single replicate (unmodified α7–GlyR; concentration 3.7037): 0.13 and 0.189 and 0.116
DR response, single replicate (unmodified α7–GlyR; concentration 11.1111): 0.281 and 0.356 and 0.257
DR response, single replicate (unmodified α7–GlyR; concentration 33.3333): 0.438 and 0.415 and 0.358
DR response, single replicate (unmodified α7–GlyR; concentration 100): 0.445 and 0.427 and 0.383
max (DR response of the replicate) (unmodified α7–GlyR; largest response of each DR): 0.445 and 0.427 and 0.383
currents from coca-5HT3 (coca-5HT3): shifted above physiological concentrations

Source: article PMC12527922, “Cocaine chemogenetics blunts drug-seeking by synthetic physiology” (Nature, 2025)
